The source made the active and inactive calls. The rule behind the calls is not given here.
How the values were obtained:
[1] = Inhibition of Saccharomyces cerevisiae alpha-glucosidase assessed as decrease in release of p-nitrophenol using pNPG as substrate preincubated for 15 min followed by substrate addition and measured after 5 mins by spectrophotometric method
Saccharomyces cerevisiae = experiment: Inhibition of Saccharomyces cerevisiae alpha-glucosidase assessed as decrease in release of p-nitrophenol at 100 uM using pNPG as substrate preincubated for 15 min followed by substrate addition and measured after 5 mins by spectrophotometric method relative to control; conditions: time 20.0 min
Homo sapiens [2] = species: Homo sapiens; experiment: Binding affinity to alpha-glucosidase (unknown origin) assessed as quenching of intrinsic tryptophan fluorescence of the enzyme by FRET assay
Homo sapiens [3] = species: Homo sapiens; experiment: Non-competitive inhibition of alpha-glucosidase (unknown origin) assessed as decrease in Vmax with constant Km using varying levels of PNP glycoside as substrate preincubated for 30 mins followed by substrate addition and measured for 60 seconds by Lineweaver-Burk plot analysis
[4] = Cytotoxicity against human L02 cells assessed as cell viability at 100 uM by MTT assay relative to control; assay type: cell-based; conditions: read-out: Activity
[5] = Cytotoxicity against human HepG2 cells assessed as cell viability at 100 uM by MTT assay relative to control; assay type: cell-based; conditions: read-out: Activity
Rattus norvegicus [6] = species: Rattus norvegicus; experiment: Hypoglycemic activity in sucrose-treated Sprague-Dawley rat assessed as reduction in blood glucose level measured after 30 mins by oral sucrose tolerance test; assay type: functional, organism-based
Rattus norvegicus [7] = species: Rattus norvegicus; experiment: Hypoglycemic activity in sucrose-treated Sprague-Dawley rat assessed as reduction in blood glucose AUC measured after 2 hrs by oral sucrose tolerance test; assay type: functional, organism-based

| IC50 [1] [µM] | inhibition (Saccharomyces cerevisiae) [%] | Structure (SMILES) | other results |
| --- | --- | --- | --- |
| 11.4 | 89.5 | N#Cc1c(NC(=O)N/N=C/c2cc(O)cc(O)c2)sc2c1CCCC2 | Activity (Homo sapiens [2]): Dose-Dependent Effect; inhibition (Homo sapiens [3]): Active; viability at 100 µM [4]: 96.6%; viability at 100 µM [5]: 93.8%; Activity (Rattus norvegicus [6]): Active; Activity (Rattus norvegicus [7]): Active |
|  | 44.9 | N#Cc1c(NC(=O)N/N=C/c2ccccc2O)sc2c1CCCC2 |  |
|  | 35.4 | Cc1cc(/C=N/NC(=O)Nc2sc3c(c2C#N)CCCC3)cc(C)c1O |  |
| 49.2 | 59.5 | Cc1cccc(/C=N/NC(=O)Nc2sc3c(c2C#N)CCCC3)c1C |  |
| 67.4 | 57.6 | N#Cc1c(NC(=O)N/N=C/c2ccc([N+](=O)[O-])cc2)sc2c1CCCC2 |  |
| 26.5 | 66.6 | N#Cc1c(NC(=O)N/N=C/c2ccc(OCc3ccccc3)cc2)sc2c1CCCC2 |  |
|  | 29.5 | Cc1cccc(/C=N/NC(=O)Nc2sc3c(c2C#N)CCCC3)c1O |  |
|  | 0.7 | COc1cc(/C=N/NC(=O)Nc2sc3c(c2C#N)CCCC3)cc(OC)c1O |  |
|  | 35.7 | N#Cc1c(NC(=O)N/N=C/c2ccc3c(c2)OC=CO3)sc2c1CCCC2 |  |
| 21.8 | 72.5 | N#Cc1c(NC(=O)N/N=C/c2ccc(Oc3ccccc3)cc2)sc2c1CCCC2 |  |
|  | 40.5 | N#Cc1c(NC(=O)N/N=C/c2cccc(OCc3ccccc3)c2)sc2c1CCCC2 |  |
| 32.5 | 64.2 | CCN(CC)c1ccc(/C=N/NC(=O)Nc2sc3c(c2C#N)CCCC3)c(O)c1 |  |
|  | 27.8 | COc1ccc(/C=N/NC(=O)Nc2sc3c(c2C#N)CCCC3)cc1O |  |
| 38.9 | 74.8 | Cc1ccc(/C=N/NC(=O)Nc2sc3c(c2C#N)CCCC3)cc1C |  |
|  | 31.4 | N#Cc1c(NC(=O)N/N=C/c2ccccc2)sc2c1CCCC2 |  |
| 54.4 | 72.2 | Cc1cc(/C=N/NC(=O)Nc2sc3c(c2C#N)CCCC3)ccc1O |  |
|  | 48 | N#Cc1c(NC(=O)N/N=C/c2ccccc2OCc2ccccc2)sc2c1CCCC2 |  |
| 25.4 | 89.5 | CCc1ccc(/C=N/NC(=O)Nc2sc3c(c2C#N)CCCC3)cc1 |  |
| 48.6 | 64.2 | CC(C)c1ccc(/C=N/NC(=O)Nc2sc3c(c2C#N)CCCC3)cc1 |  |

| IC50 [1] [µM] | inhibition (Saccharomyces cerevisiae) [%] | Structure (SMILES) | other results |
| --- | --- | --- | --- |
| 440 |  | C[C@H]1O[C@H](O[C@H]2[C@H](O)[C@@H](O)[C@@H](O[C@H]3[C@H](O)[C@@H](O)C(O)O[C@@H]3CO)O[C@@H]2CO)[C@H](O)[C@@H](O)[C@@H]1N[C@H]1C=C(CO)[C@@H](O)[C@H](O)[C@H]1O (stereo partly drawn) [ACARBOSE] | Activity (Rattus norvegicus [6]): Active |
| 46.4 | 67.2 | CN(C)c1ccc(/C=N/NC(=O)Nc2sc3c(c2C#N)CCCC3)cc1 |  |
| 68.4 | 70.7 | N#Cc1c(NC(=O)N/N=C/c2ccc(N3CCCC3)cc2)sc2c1CCCC2 |  |
| 29.8 | 85.1 | Cc1ccc(/C=N/NC(=O)Nc2sc3c(c2C#N)CCCC3)cc1 |  |
|  | 34.9 | Cc1ccc(/C=N/NC(=O)Nc2sc3c(c2C#N)CCCC3)c(O)c1 |  |
|  | 7.69 | COC(=O)c1ccc(/C=N/NC(=O)Nc2sc3c(c2C#N)CCCC3)cc1 |  |
| 32.1 | 77.3 | CCN(CC)c1ccc(/C=N/NC(=O)Nc2sc3c(c2C#N)CCCC3)cc1 |  |
| 29.5 | 68.2 | N#Cc1c(NC(=O)N/N=C/c2cccc(O)c2O)sc2c1CCCC2 |  |
|  | 48.4 | N#Cc1c(NC(=O)N/N=C/c2cccc(O)c2)sc2c1CCCC2 |  |
| 20.7 | 81.7 | N#Cc1c(NC(=O)N/N=C/c2ccc(O)cc2)sc2c1CCCC2 |  |
| 49.6 | 52.3 | Cc1cc(C)c(/C=N/NC(=O)Nc2sc3c(c2C#N)CCCC3)c(C)c1 |  |
| 33.8 | 63.1 | N#Cc1c(NC(=O)N/N=C/c2ccc(O)cc2O)sc2c1CCCC2 |  |
| 17.7 | 85.9 | N#Cc1c(NC(=O)N/N=C/c2ccc(O)c(O)c2O)sc2c1CCCC2 |  |
| 13.5 | 89.7 | N#Cc1c(NC(=O)N/N=C/c2ccc(N(c3ccccc3)c3ccccc3)cc2)sc2c1CCCC2 |  |
|  | 18.8 | COc1ccc(/C=N/NC(=O)Nc2sc3c(c2C#N)CCCC3)cc1 |  |
| 9.26 | 86.3 | N#Cc1c(NC(=O)N/N=C/c2ccc(O)c(O)c2)sc2c1CCCC2 | Activity (Homo sapiens [2]): Dose-Dependent Effect; inhibition (Homo sapiens [3]): Active; viability at 100 µM [4]: 96%; viability at 100 µM [5]: 92.7%; Activity (Rattus norvegicus [6]): Active; Activity (Rattus norvegicus [7]): Active |
| 63.1 |  | N#Cc1c(NC(=O)NCc2ccccc2)sc2c1CCCC2 |  |
|  | 36.4 | COc1cc(/C=N/NC(=O)Nc2sc3c(c2C#N)CCCC3)cc(OC)c1 |  |
|  |  | COc1cccc2c1C(=O)c1c(O)c3c(c(O)c1C2=O)C[C@@](O)(C(=O)CO)C[C@@H]3O[C@H]1C[C@H](N)[C@H](O)[C@H](C)O1 [DOXORUBICIN] | viability at 100 µM [4]: 4%; viability at 100 µM [5]: 4% |

Source: ChEMBL document CHEMBL5030554, “Design, synthesis and biological evaluation of novel (E)-2-benzylidene-N-(3-cyano-4,5,6,7-tetrahydrobenzo[b]thiophen-2-yl)hydrazine-1-carboxamide derivatives as α-glucosidase inhibitors” (Bioorg Med Chem Lett, 2021)
